These results are taken from patent publication US20060100226A1, “2-Thiopyrimidinones as therapeutic agents” (priority 2004, published 2006).

SMILES strings stand for the structures.

In one experiment the target is T1, murine MEKK2 (mMEKK2) (Mus musculus, UniProt Q61083).
T1 sequence (Q61083 1-619): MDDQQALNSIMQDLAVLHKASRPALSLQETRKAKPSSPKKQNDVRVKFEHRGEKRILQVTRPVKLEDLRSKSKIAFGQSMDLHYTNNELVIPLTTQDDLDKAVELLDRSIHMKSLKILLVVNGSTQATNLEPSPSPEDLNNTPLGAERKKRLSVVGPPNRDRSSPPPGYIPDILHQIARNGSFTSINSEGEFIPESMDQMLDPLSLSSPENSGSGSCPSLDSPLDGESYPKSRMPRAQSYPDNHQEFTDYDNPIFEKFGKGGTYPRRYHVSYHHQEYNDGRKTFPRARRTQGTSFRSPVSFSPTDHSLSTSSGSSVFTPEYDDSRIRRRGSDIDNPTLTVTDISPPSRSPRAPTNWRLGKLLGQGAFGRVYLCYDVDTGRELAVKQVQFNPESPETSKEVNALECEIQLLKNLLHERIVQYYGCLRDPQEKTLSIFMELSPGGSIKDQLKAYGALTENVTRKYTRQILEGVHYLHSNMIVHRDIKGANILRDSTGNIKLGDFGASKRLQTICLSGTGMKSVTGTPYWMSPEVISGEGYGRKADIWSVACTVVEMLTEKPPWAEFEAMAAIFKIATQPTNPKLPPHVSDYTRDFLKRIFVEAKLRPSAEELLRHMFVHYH
In words: TR-FRET kinase assay (mMEKK2/MBP). The experiment is classed as biochemical. The conditions noted are these: substrate biotin MBP, 60 minutes at room temperature. Here is the method:
In one approach, MEKK2 inhibitory activity of compounds of the invention can be assessed using the time-resolved Fluorescence Resonance Energy Transfer (TR-FRET) assay detailed in Example 5. In this assay, the excitation energy of one fluorescent molecule (the donor) is transferred by a resonance mechanism to a nearby second fluorescent molecule (the acceptor), which then releases its fluorescent energy through fluorescent emission. This fluorescent energy is measured using a time-resolved fluorescence measurement protocol (LANCE high count 615/665); excitation occurred with 1,000 flashes at 325 nm, measurement was delayed by 100 μs, and data were acquired for 50 μs at 615 and 665 nm.
A TR-FRET kinase assay was used to screen potential inhibitors of MEKK2. The assay was performed as follows: Compounds to be tested were weighed and solubilized in DMSO (Sigma) to a stock concentration of 10 mM. Serial dilutions starting from 1 mM were prepared with additional DMSO. These dilutions were further diluted to 250 μM in kinase reaction buffer [20 mM Hepes pH 7.5, 5 mM MgCl2, 1 mM DTT (Dithiothreitol-Sigma), 1 mM NaVO4 (sodium vanadate-Sigma). A 25 μl aliquot of this solution was transferred to a black 96-well nonbinding surface microplate (Fisher). A stock aliquot containing […] of murine MEKK2 (mMEKK2) was diluted in the kinase reaction buffer and incubated with the compounds on the microplate for 10 minutes. A 25 μl aliquot of a 138 ng solution of biotin MBP (myelin basic protein—Upstate Biotechnology) was added to the reaction followed by 25 ul of a 25 ng solution of anti-phospho MBP antibody (Upstate Biotechnology) diluted in kinase reaction buffer. Finally an aliquot (50 μl) of a 5 uM solution of ATP (adenosine triphosphate) was added and the reaction was allowed to proceed for 60 minutes at room temperature. The reaction was stopped by the addition of 50 μL of a 12.5 ng solution of europium labeled anti-mouse IgG (Perkin Elmer) and 45 ng of Cy5 labeled streptavidin (Jackson Immunoresearch) in termination buffer (20 mM Hepes pH 7.5, 100 mM EDTA; Sigma). The assay was allowed to equilibrate for 45 minutes before placing the plate on the Victor™ plate reader. The plate was read using the 615/665 LANCE protocol.
A general note: In TR-FRET formats the signal depends on donor and acceptor labels being close together.
`N#Cc1c(-c2cccc(Cn3ccnc3)c2)nc(SCc2cccc(NC(=O)c3ccc(Cl)c(Cl)c3)c2)[nH]c1=O` [Example 4cc]: the IC50 (as a rule, the concentration at which inhibition is half-maximal) was greater than 40 µM.
As for `CCc1nc(C)c(CNc2cccc(CSc3nc(-c4cccc(OC)c4)c(C#N)c(=O)[nH]3)c2)[nH]1` [Example 4e], the IC50 was greater than 40 µM.
Regarding `COc1cccc(-c2nc(SCc3cc(NCc4ccc(Cl)c(Cl)c4)ccc3O)[nH]c(=O)c2C#N)c1` [Example 4f], the half-inhibitory concentration (IC50) is less than 5 µM.
The compound `COc1cccc(-c2nc(SCc3cc(NCc4ccc(Cl)c(Cl)c4)cc([N+](=O)[O-])c3)[nH]c(=O)c2C#N)c1` [Example 4g] displayed an IC50 of less than 5 µM.
The compound `COc1cccc(-c2nc(SCCCCCn3cnc4c(NCc5ccccc5)ncnc43)[nH]c(=O)c2C#N)c1` [Example 4h] displayed an IC50 greater than 40 µM.
Turning to `COc1cccc(-c2nc(SCCCn3cnc4c(NCc5ccccc5)ncnc43)[nH]c(=O)c2C#N)c1` [Example 4i], the IC50 was greater than 40 µM.
In turn, `N#Cc1c(-c2cccc(C(=O)O)c2)nc(SCCCn2cnc3c(NCc4ccccc4)ncnc32)[nH]c1=O` [Example 4j] returned an IC50 greater than 40 µM.
Compound `N#Cc1c(-c2cccc(O)c2)nc(SCc2cccc(NCC3CCN(c4ccncc4)CC3)c2)[nH]c1=O` [Example 4k] displayed an IC50 greater than 40 µM.
`N#Cc1c(-c2cccc(O)c2)nc(SCc2cccc(NC(=O)c3ccc(Cl)c(Cl)c3)c2)[nH]c1=O` [Example 4l] came in with an IC50 of less than 5 µM.
Compound `N#Cc1c(-c2cccc(F)c2)nc(SCc2cccc(NC(=O)c3ccc(Cl)c(Cl)c3)c2)[nH]c1=O` [Example 4o] returned a half-maximal inhibitory concentration (IC50) of less than 5 µM.
Take `N#Cc1c(-c2cccc(NCC[C@@H](O)[C@@H](O)CO)c2)nc(SCc2cccc(NC(=O)c3ccc(Cl)c(Cl)c3)c2)[nH]c1=O` [Example 4y]: the IC50 was less than 5 µM.

The target in the next experiment is T1, murine MEKK2 (mMEKK2). In words: MEKK2 PhosphoELISA (mMEKK2/MKK4). The format is biochemical. The conditions noted are these: substrate MKK4/SKK1 (unactive), ATP final 10 μM, O.D. 450 nm. The source says: Another useful method for assessing protein kinase inhibition, and specifically MEKK2 inhibition, of compounds of the invention involves the MEKK2 phospho-antibody enzyme-linked immunosorbent assay (PhosphoELISA). This screening panel, which involves relatively few steps, is a useful indicator of potential inhibitors of MEKK2. Reactions to murine MEKK2 are observed as optical density measurements at an absorbance of 450 nm. Inhibitory activities can be expressed in terms of IC50, where IC50 is the molar concentration of compound required to inhibit protein kinase binding by 50%.
A phospho-antibody enzyme-linked immunosorbent assay (PhosphoELISA) was used to screen potential inhibitors of MEKK2. The assay was performed as follows: Compounds to be tested were weighed and solubilized in DMSO (Sigma) to a stock concentration of 10 mM. Serial dilutions starting from 1 mM were prepared with additional DMSO. These dilutions were further diluted to 250 μM in kinase reaction buffer [20 mM Hepes pH 7.5, 5 mM MgCl2, 1 mM DTT (Dithiothreitol-Sigma), 1 mM NaVO4 (sodium vanadate- Sigma). A 25 μl aliquot of this solution was transferred to a glutathione coated 96-well microplate (Pierce). A stock aliquot containing 50-125 ng of murine MEKK2 (mMEKK2) was added to each well and incubated on the microplate for 10 minutes at room temperature. A 25 μl solution of MKK4/SKK1 (unactive) was diluted 1:200 in kinase assay buffer and added to the reaction plate followed by 50 μl of 25 μM ATP (adenosine triphosphate) to afford a final well concentration of 10 μM. The reaction was allowed to proceed for 60 minutes at room temperature before washing 3 times with wash buffer [100 mM phosphate pH 7.5, 0.05% TWEEN 20 (Sigma)]. A solution of anti-phospho MKK4/SEK1 antibody (Calbiochem) and biotin anti rabbit IgG (Jackson Immunoresearch) was diluted 1:2500 in kinase reaction buffer and added to the appropriate wells. The reaction was incubated for 60 minutes at room temperature. The microplate was washed 3 times with wash buffer and 100 ul of streptavidin horseradish peroxidase (HRP-Pierce) was added and incubated for 30 minutes at room temperature. The microplate was washed 3 times with wash buffer and 100 μl of TMB (3,3′,5,5′-tetramethylbenzidine-Sigma) was added. The assay was allowed to develop for 15-20 minutes then the reaction was stopped with the addition of 100 μl of 0.2 N sulfuric acid. The optical density (O.D.) of the plate was read on the Victor™ plate reader using the absorbance at 450 nm.
`N#Cc1c(-c2ccc(-c3cc4ccccc4s3)cc2)nc(SCc2cccc(NC(=O)c3ccc(Cl)c(Cl)c3)c2)[nH]c1=O` [Example 2aa, N-{3-[4-(4-Benzo[b]thiophen-2-yl-phenyl)-5-cyano-6-oxo-1,6-dihydro-pyrimidin-2-ylsulfanylmethyl]-phenyl}-3,4-dichloro-benzamide] yielded an IC50 of less than 1 µM.
In turn, `N#Cc1c(-c2cccc(OC(F)(F)F)c2)nc(SCc2cccc(NC(=O)c3ccc(Cl)c(Cl)c3)c2)[nH]c1=O` [Example 2cc, 3,4-Dichloro-N-{3-[5-cyano-6-oxo-4-(3-trifluoromethoxy-phenyl)-1,6-dihydro-pyrimidin-2-ylsulfanylmethyl]-phenyl}-benzamide] registered an IC50 of less than 1 µM.
For the compound `CC(C)(C)OC(=O)n1c(-c2cccc(-c3nc(SCc4cccc(NC(=O)c5ccc(Cl)c(Cl)c5)c4)[nH]c(=O)c3C#N)c2)cc2ccccc21` [Example 2jj, 2-(3-{5-Cyano-2-[3-(3,4-dichloro-benzoylamino)-benzylsulfanyl]-6-oxo-1,6-dihydro-pyrimidin-4-yl}-phenyl)-indole-1-carboxylic acid tert-butyl ester], the IC50 was less than 1 µM.
Regarding `N#Cc1c(-c2cccc(-c3cc4ccccc4[nH]3)c2)nc(SCc2cccc(NC(=O)c3ccc(Cl)c(Cl)c3)c2)[nH]c1=O` [Example 2kk, 3,4-Dichloro-N-(3-{5-cyano-4-[3-(1H-indol-2-yl)-phenyl]-6-oxo-1,6-dihydro-pyrimidin-2-ylsulfanylmethyl}-phenyl)-benzamide], the IC50 was less than 5 µM.
For `N#Cc1c(-c2c[nH]c3ccccc23)nc(SCc2cccc(NC(=O)c3ccc(Cl)c(Cl)c3)c2)[nH]c1=O` [Example 2ll, 3,4-Dichloro-N-{3-[5-cyano-4-(1H-indol-3-yl)-6-oxo-1,6-dihydro-pyrimidin-2-ylsulfanylmethyl]-phenyl}-benzamide], the IC50 is less than 5 µM.
On the same count and under the same terms, the result for `N#Cc1c(-c2c[nH]c3ccc(Br)cc23)nc(SCc2cccc(NC(=O)c3ccc(Cl)c(Cl)c3)c2)[nH]c1=O` [Example 2mm, N-{3-[4-(5-Bromo-1H-indol-3-yl)-5-cyano-6-oxo-1,6-dihydro-pyrimidin-2-ylsulfanylmethyl]-phenyl}-3,4-dichloro-benzamide] reads less than 1 µM; that for `N#Cc1c(-c2cccc(Br)c2)nc(SCc2cccc(NC(=O)c3ccc(Cl)c(Cl)c3)c2)[nH]c1=O` [Example 2nn, N-{3-[4-(3-Bromo-phenyl)-5-cyano-6-oxo-1,6-dihydro-pyrimidin-2-ylsulfanylmethyl]-phenyl}-3,4-dichloro-benzamide], less than 1 µM; that for `COc1cccc(-c2nc(SCc3cccc(NC(=O)c4ccc(F)c(F)c4)c3)[nH]c(=O)c2C#N)c1` [Example 2oo, N-{3-[5-Cyano-4-(3-methoxy-phenyl)-6-oxo-1,6-dihydro-pyrimidin-2-ylsulfanylmethyl]-phenyl}-3,4-difluoro-benzamide], less than 5 µM.
In the case of `COc1cccc(-c2nc(SCc3cccc(NC(=O)Nc4ccc(Cl)c(Cl)c4)c3)[nH]c(=O)c2C#N)c1` [Example 3a, 1-{3-[5-Cyano-4-(3-methoxy-phenyl)-6-oxo-1,6-dihydro-pyrimidin-2-ylsulfanylmethyl]-phenyl}-3-(3,4-dichloro-phenyl)-urea], the IC50 is less than 1 µM.
Compound `COc1cccc(-c2nc(SCc3cccc(NCc4cccc(OCCN(C)C)c4)c3)[nH]c(=O)c2C#N)c1` [Example 4a] displayed an IC50 greater than 40 µM.
For the compound `CN(CCOc1ccc(-c2nc(SCc3cccc(NC(=O)c4ccc(Cl)c(Cl)c4)c3)[nH]c(=O)c2C#N)cc1)c1ccncc1` [Example 4aa], the IC50 is 20 µM.
For `COc1cccc(-c2nc(SCc3cccc(NCc4cnc(O)nc4O)c3)[nH]c(=O)c2C#N)c1` [Example 4d], the IC50 is greater than 40 µM.
Turning to `CCc1nc(C)c(-c2nc(SCc3cccc(NC(=O)c4ccc(Cl)c(Cl)c4)c3)[nH]c(=O)c2C#N)[nH]1` [Example 4dd], the IC50 is greater than 40 µM.
For `COc1cccc(-c2nc(SCCCn3cnc4c(NC(=O)c5ccccc5)ncnc43)[nH]c(=O)c2C#N)c1` [Example 4ee], the IC50 was greater than 40 µM.
`COc1cccc(-c2nc(SCCCn3cnc(NC(=O)c4ccc(Cl)c(Cl)c4)n3)[nH]c(=O)c2C#N)c1` [Example 4ff] showed an IC50 greater than 40 µM.
